Test results: ChEMBL document CHEMBL1141934, “Comparison of ligand-based and structure-based 3D-QSAR approaches: a case study on (aryl-)bridged 2-aminobenzonitriles inhibiting HIV-1 reverse transcriptase” (J Med Chem, 2005)

Molecular target: Human immunodeficiency virus type 1 reverse transcriptase (Human immunodeficiency virus 1, UniProt Q72547)
Experiment: Inhibitory concentration against Reverse transcriptase

IC50 [µM]	Structure (SMILES)
9.77	N#Cc1ccccc1[S+]([O-])c1cccc(N)c1C#N (configuration not stated)
0.0295	N#Cc1c(N)cccc1S(=O)(=O)c1ccc2ccccc2c1
